In ChEMBL document CHEMBL5029180, “Design and synthesis of an oral prodrug alalevonadifloxacin for the treatment of MRSA infection” (Bioorg Med Chem Lett, 2021):

Experiments:
[1] = Aqueous solubility of compound at pH 7; format: physicochemical
[2] = Prodrug activation in human liver S9 fraction assessed as S-(-)-nadifloxacin release measured after 30 to 60 mins by LC-MS/MS analysis; format: subcellular; conditions: time 30-60 min
[3] = Prodrug activation in human intestinal S9 fraction assessed as S-(-)-nadifloxacin release measured after 90 mins by LC-MS/MS analysis; format: subcellular, Intestine; conditions: s9, 1.5 h
[4] = Prodrug activation in human whole blood assessed as S-(-)-nadifloxacin release measured after 30 to 60 mins by LC-MS/MS analysis; format: tissue-based; conditions: time 30-60 min

solubility [1] | Drug metabolism [2] | Drug metabolism [3] | Drug metabolism [4] | Structure (SMILES)
< 1 mg/mL |  |  |  | C[C@H]1CCc2c(N3CCC(O)CC3)c(F)cc3c(=O)c(C(=O)O)cn1c23.N=C(N)NCCC[C@H](N)C(=O)O.O.O.O.O
> 200 mg/mL |  |  |  | CC(C)[C@H](N)C(=O)OC1CCN(c2c(F)cc3c(=O)c(C(=O)O)cn4c3c2CC[C@@H]4C)CC1
< 1 mg/mL | Metabolite_Detected | Metabolite_Detected | Metabolite_Detected | CS(=O)(=O)O.C[C@H](N)C(=O)OC1CCN(c2c(F)cc3c(=O)c(C(=O)O)cn4c3c2CC[C@@H]4C)CC1
> 200 mg/mL |  |  |  | CC(C)[C@H](N)C(=O)OC1CCN(c2c(F)cc3c(=O)c(C(=O)O)cn4c3c2CC[C@@H]4C)CC1.CS(=O)(=O)O
